# Data as given in patent US20040186052A1, “Cytomodulating peptides and methods for treating neurological disorders” (priority 2002, published 2004).
# B1: GDNF: glial cell line-derived neurotrophic factor (protein, UniProt P39905 78-211, looked up)
# Glial cell line-derived …: SPDKQMAVLPRRERNRQAAAANPENSRGKGRRGQRGKNRGCVLTAIHLNVTDLGLGYETKEELIFRYCSGSCDAAETTYDKILKNLSRNRRLVSDKVGQACCRPIAFDDDLSFLDDNLVYHILRKHSAKRCGCI
# Tests used:
# [1] = test system: dopaminergic neurons in the substantia nigra; details: MPTP model; cited from earlier work
# [2] = test system: ChAT neurons of the nucleus basalis; details: following insult with ibotenic acid; cited from earlier work
# [3] = test system: hair cell and cochlear neuron; details: associated with trauma; cited from earlier work
# MS = details: in vivo; cited from earlier work
# [4] = test system: neuronal subtypes deprived of trophic support; details: cited from earlier work
# retinal ganglion cells = details: following axotomy of the optic nerve; cited from earlier work
# primary neurons = details: cited from earlier work
# [5] = in vivo; cited from earlier work
# TNFα mRNA = test: Cytokine mRNA in brain of EAE rats by real-time RT-PCR; format: in vivo, Lewis rats; details: brain RNA thirteen days after immunization, RDP58- vs Mannitol-treated, n=9, P<0.05
# Protocol: Animals were sacrificed for molecular analysis at post onset day 5. Brains and spinal cords were removed and frozen in liquid nitrogen, then stored at −80° C. until ready for use. The tissues were subsequently homogenized in 700 μl of a guanidinium isothiocyanate solution containing 49 μl β-mercaptoethanol using an Ultraturrax tissue homogenizer (Jahnke and Kunkel, Staufen i. Breisgau, Germany). Total RNA was extracted by using the Absolutely RNA™ RT-PCR Miniprep Kit (Stratagene, La Jolla, USA) and its quality and quantity was determined with the Agilent 2100 Bioanalyzer System (Agilent Technologies, Palo Alto, USA). […]
# To measure cytokine mRNA levels, the expression of each gene transcript was analyzed by real-time PCR using the ABI PRISM 7700 Sequence Detection System (TaqMan™, Perkin-Elmer Biosystems, Weiterstadt, Germany). […]
# The PCR reaction was performed in a final volume of 25 μl containing 1 μl cDNA, 12.5 μl Master Mix (TaqMan™ Universal PCR Master Mix, Perkin Elmer, Applied Biosystems, Weiterstadt, Germany), 1 μl fluorogenic hybridization probe, […], and 5.5 μl distilled water. […] The mean Ct values for beta-actin and the cytokines were calculated from duplicate reactions. […]
# Body weight in EAE rats = format: in vivo, Lewis rats; details: 50, 15, or 5 mg by icv injection ten days after immunization; % body weight vs starting point
# [6] = test system: experimental autoimmune encephalomyelitis (EAE); test: Acute EAE in Lewis rats, daily clinical scoring; format: in vivo; details: intracerebroventricular administration (Table I, FIG. 7)
# NGF-dependent neurons = test: Apoptosis of NGF-dependent neurons after NGF deprivation (TUNEL); format: cell-based; details: media lacking NGF and containing anti-NGF antibody
# Protocol: NGF-dependent neurons are maintained in vitro in media containing NGF. The cells are washed and the media containing NGF is replaced with media lacking NGF and containing anti-NGF antibody. One sample is incubated in the presence of RDP-58, the other in the absence of RDP-58. Apoptosis is measured in the two samples, for example, by TUNEL labeling. RDP-58 inhibits neuronal apoptosis in NGF-dependent neurons induced by NGF deprivation.
# [7] = rheumatoid arthritis patients; cited from earlier work
# [8] = test system: relapsing-remitting form of MS; details: patients with relapsing-remitting MS; cited from earlier work
# Parkinson's disease = details: direct infusion into the putamen; cited from earlier work
molecule,measurement,setting,value
CCSCc1ccc2c(c1)c1c3c(c4c5cc(CSCC)ccc5n5c4c1n2[C@H]1C[C@](O)(C(=O)OC)[C@]5(C)O1)CNC3=O [CEP-1347],survival of dopaminergic neurons in the substantia nigra,[1],promotes
same,functional deficits,[2],reduces
same,survival of ChAT neurons of the nucleus basalis,[2],promotes
same,functional deficits,[3],reduce
same,hair cell and cochlear neuron death,[3],prevent
Cc1ccc(=O)n(-c2ccccc2)c1 [Pirfenidone],progression of MS,MS,slow
same,symptoms of MS,MS,reduce
Oc1ccc(-c2nc(-c3ccncc3)c(-c3ccc(F)cc3)[nH]2)cc1 [SB202190],survival of neuronal subtypes,[4],promote survival
C[S+]([O-])c1ccc(-c2nc(-c3ccncc3)c(-c3ccc(F)cc3)[nH]2)cc1 (stereo not shown) [SB203580],survival of neuronal subtypes,[4],promote survival
same,retinal ganglion cell death,retinal ganglion cells,reduced
same,NO toxicity,primary neurons,inhibits
CN(C)c1ccc(O)c2c1C[C@H]1C[C@H]3[C@H](N(C)C)C(O)=C(C(N)=O)C(=O)[C@@]3(O)C(O)=C1C2=O [minocycline],penetration of the blood-brain-barrier,[5],limited
Arg-nL-nL-nL-Arg-nL-nL-nL-Gly-Tyr [RDP58],TNFα mRNA level in brain,TNFα mRNA,significantly reduced
same,change in body weight associated with EAE induction,Body weight in EAE rats,reduces
same,disease index,[6],reducing
same,incidence,[6],reducing
same,mean clinical scores,[6],reducing
same,severity,[6],reducing
same,neuronal apoptosis induced by NGF deprivation,NGF-dependent neurons,inhibits
Infliximab: anti-TNF monoclonal antibody,demyelinating disease symptoms,[7],correlated with incidences of demyelinating disease symptoms in some patients
glatiramer acetate,disease episodes,[8],reductions
B1,patients' performance,Parkinson's disease,improve
